Data reported in patent publication US9901650B2, “Methods for evaluating brain-wide paravascular pathway for waste clearance function and methods for treating neurodegenerative disorders based thereon” (University of Rochester, priority 2013, dated 2018).
Entries after “also recorded” stand apart in the source; their conditions may differ. Where two headings read alike, the source gives them in different places. No end group written: not given here.

Tests used:
[1] = rat, in vivo
Experimental: (§1) Sprague Dawley rats (2-3 month old females) were anesthetized with phenobarbital and lumbar intrathecal catheters placed. Imaging was performed using a custom-built, MRI-compatible PET scanner for the rat brain in combination with a 9.4T microMRI (ref). […] The PET ring (ID 38 mm and accommodating the head of a rat) consists of 12 detector blocks consisting of a 4×8 array of 2.22×2.22×5 mm^3 lutetium oxyorthosilicate (LSO) crystals assembled with a thin reflective foil and coupled to a matching non-magnetic S8550 APD array (ref). PET data are transferred via optical fibers to an external (PCI)-based data acquisition board (ref). For simultaneous PET/MRI imaging a custom-made volume RF coil which fits inside the PET ring was used. The 9.4T microMRI used in all experiments is a superconducting horizontal bore magnet (Bruker Biospin 94/20, 400 MHz, Magnex scientific) interfaced to a Bruker Advance console and controlled by Paravision 5.0 software (Bruker Bio Spin, Billerica, Mass.). The magnet is equipped with an actively shielded combined RT-shim and gradient system (B-GA 12S) that can produce a maximum gradient strength of 200 mT/m. […]

[2] = Dynamic integrated MRI-PET imaging after intrathecal infusion; conditions: lumbar intrathecal infusion
Experimental: as §1

[3] = Dynamic contrast-enhanced MRI after intrathecal infusion of paramagnetic contrast: regional tissue uptake (TACs, mAUC)
Experimental: Female Sprague Dawley rats were used (Taconics, body weight: 220-280 g). For anesthesia, the animals were induced with 3% isofluorane in oxygen using an induction chamber and then received an intra-peritoneal injection of 40 mg/kg […] (Nembutal® Sodium solution, OVATION, Pharmaceuticals, Inc., Deerfield, Ill., USA). The animals were allowed to breathe spontaneously during the entire experiment. Non-invasive monitors (pulse-oximetry, respiratory rate and rectal temperature probe, SA Instruments, Inc., Stony Brook, N.Y.) were placed to assure adequate oxygenation (O2-saturation>97%), ventilation (respiratory rate 50-65 breath per minute) and normal body temperature (36.5° C.-37.5° C.) during the surgical procedures. A 24-gauge catheter was inserted into the tail vein for administration of fluids and supplemental anesthesia. The animal was positioned in a stereotaxic frame (Kopf Instruments, frame #9) and the head flexed to 50 degrees. For the brief surgical procedure, anesthesia was supplemented with isoflurane (0.8-1.2%) delivered in an 1:1 O2:Air mixture.
The atlanto-occipital membrane was exposed via a midline dorsal neck incision and a small incision was made to expose the underlying dura mater. A polyethylene catheter (6-cm long, 0.28 mm ID×0.61 mm OD, (Solomon Scientific, Plymouth Meeting, Pa.)) filled with normal saline was advanced 1-mm into the intrathecal space via a small durotomy made using a 23-gauge needle and was fixed and sealed with super glue. The skin incision was closed around the catheter.
Following surgery, the rats were flipped supine and positioned in a custom-made acrylic cradle fitted with a head fixation device and a snout mask for delivery of supplemental oxygen. The head of the animal was positioned on top of a 3.0 cm custom-made radio-frequency (rf) receiver coil. Non-invasive, MRI compatible monitors (pulse-oximetry, respiratory rate and rectal temperature probe, SA Instruments, Inc., Stony Brook, N.Y.) were repositioned for continuous monitoring of vital signs while the animal underwent MRI imaging. During imaging, body temperature was kept strictly within 36.5-37.5° C. during imaging using a computer assisted air heating system (SA Instruments, Inc., Stony Brook, N.Y.). The intrathecal catheter was connected to a long PE 20 line filled with paramagnetic MR contrast diluted in 0.9% NaCl attached to a 1 cc-syringe and microinfusion pump (Baxter Model AS50 infusion Pump, Baxter Healthcare Corporation, Illinois, USA). The tail vein catheter was used for maintenance hydration (0.9% NaCl, 4 cc/kg/hr) and supplemental anesthesia (Nembutal®, 5-10 mg/kg IV) administered every 2 hrs as guided by the respiratory rate.
All imaging protocols were performed on a 9.4T/20 MRI instrument interfaced to a Bruker Advance console and controlled by Paravision 5.0 software (Bruker Bio Spin, Billerica, Mass.). A custom-made 3-cm surface radio-frequency coil was used as a receiver and a 16-cm diameter volume coil (Bruker) was used as a transmitter. […] For all experiments a 60 mM (1:8 volume ratio diluted in 0.9% NaCl) Gd-DTPA phantom placed in the vicinity of animal's head was used for image intensity normalization over the time series. […] A total of 80 μl of the paramagnetic contrast agent was delivered intrathecally at an infusion rate of 1.6 μl/min (total infusion time: 50 min). After completion of the intrathecal infusion, the 3D MRI acquisitions continued over 3.9 hrs. At the end of the experiment the animal was euthanized with an overdose of Nembutal.
The general MRI image processing procedure consisted of head motion correction, intensity normalization, smoothing and voxel-by-voxel conversion to % of baseline signal. SPM8 (World Wide Web at fil.ion.ucl.ac.uk/spm) was used for this. First, the acquired T1-weighted MRI images were exported as DICOM files and converted to 3D Nlfti image format.

[4] = K-means cluster analysis of contrast-enhanced MRI, 4 mid-sagittal slices
Experimental: Non-parametric segmentation to group voxels in the MRI images on the basis of similar kinetics was performed using a k-means cluster algorithm (PMOD Version 3.307, PMOD Technologies, Ltd, Zurich, Switzerland) on four sagittal slices at the level of the aqueduct from each of the 4D T1-weighted MRIs. A volume-of-interest mask containing the brain only was created for the cluster analysis. The number of clusters (K) used was determined by the K which was able to segment out voxels adjacent to the large vessels such as basilar artery (including pituitary recess) and olfactory artery complex. This was done on an interactive, per animal basis.
All data are presented as mean±SD.

glymphatic system [5] = assay: Brain clearance of 125I-Aβ40 and 14C-inulin after injection into the frontal cortex, pharmacological intervention; type: in vivo, mice
Experimental: The role of RAS on clearance of exogenous ^125I-Aβ and ^14C-inulin were determined at 30 minutes after their injection into the frontal cortex (Xie et al., 2013).
Briefly, a stainless steel guide cannula was implanted stereotaxically into the right caudate-putamen or frontal cortex of anesthetized mice (ketamine (100 mg/kg) and xylazine (10 mg/kg). For the frontal cortex, the coordinate of the cannula tip was 0.7 mm anterior and 3.0 mm lateral to the bregma, and 1.3 mm below the surface of the brain. Animals were allowed to recover after surgery. The experiments were performed before substantial chronic process occurred, but allowing time for the BBB repair to large molecules, as reported (Deane et al., 2004). Drugs were pre-injected for 10 minutes before injection of the radio-labeled molecules.
Injection of the mixture of tracers: Mock CSF (0.5 μL) containing ^125I-labeled Aβ40 (10 nM monomer) together with ^14C-inulin (0.05 μCi, an inert molecule for bulk flow) was microinfused into brain ISF over 5 minutes.
At the end of the experiments brain was removed and prepared for radioactivity analysis and TCA analyses.
^125I-radioactivities were determined in a gamma counter (Wallac Vizard Gamma Counter, Perkin Elmer). For ^14C-counting, the samples were solubilized in 0.5 ml tissue solubilizer (Perkin Elmer) overnight, followed by addition of 5 ml of scintillation cocktail (Packard Ultima Gold) and analyzed in a liquid scintillation counter (Beckman Coulter Counter).
All calculations of clearance parameters were carried out as described above or by routine methods (Deane et al., 2004; Xie et al., 2013). Briefly, the percentage of radioactivity remaining in the brain after microinjection was determined as % recovery in brain=100×(Nb/Ni), where Nb is the radioactivity remaining in the brain at the end of the experiment and Ni is the radioactivity injected into the brain ISF, i.e., the d.p.m. for ^14C-inulin and the c.p.m. for the TCA-precipitable ^125I-radioactivity. Inulin was used as a metabolically inert polar molecule which is neither transported across the BBB nor retained by the brain; its clearance rate provides a measure of the ISF convective bulk flow. For each group there were 3-6 mice, and data expressed as mean±SEM. P<0.5 was taken as statistically significant as determined using T-test.

glymphatic system [6] = assay: Brain influx of 125I-Aβ40 and 14C-inulin after injection into the cisterna magna, pharmacological intervention; type: in vivo, mice
Experimental: The role of RAS on the influx of these molecules into brain was determined by injecting these molecules into the subarachnoid space (cisterna magna) and determining brain levels after 30 minutes.
A small volume (5 μL) of mock CSF containing ^125I-Aβ40 (10 nM) and ^14C-inulin (0.05 μCi) was microinjected into the cistern magna at 1 μL/min. At the end of the experiment (30 minutes) the brain was removed and analyzed for radioactivity.

AQP4-M1 expression = AQP4-M1 expression by qPCR in cultured primary cortical astrocytes; type: cell-based, mouse; conditions: vs. control; siRNA transfected for six days
Description: (A) The Aqp4 gene has two transcription initiation site, with transcription initiated at each site resulting in two AQP4 mRNA variants: AQP4-M1 which includes Exons 0-4 of the Aqp4 gene and AQP4-M23 which lacks Exon 0. (B) AQP4-M23 (the predominant form in the CNS under physiological conditions) permits perivascular AQP4 packing while AQP4-M1 prevents it; thus increasing AQP4-M1 expression impairs AQP4 polarization (Crane et el. J Biol Chem 2009; Furman et al. Proc Nat Acad Sci 2003). (C) The expression of AQP4-M1 was evaluated by real-time quantitative PCR (qPCR) in the mouse ipsilateral cortex 3 days after TBI using PCR primers specifically targeting Exon 0 of the AQP4-M1 transcript. Compared to AQP4-M1 expression in the control (sham) cortex, TBI increased AQP4-M1 expression by approximately two-fold (*P<0.05, t-test; n=5 per group). (D) Using an siRNA-based approach targeting Exon 0 of the AQP4-M1 variant, the expression of AQP4-M1 could be efficiently knocked down in cultured primary mouse cortical astrocytes. Three siRNA duplexes were designed to target Exon 0 of the AQP4-M1 transcript, and primary mouse astrocytes were transfected with these siRNA duplexes for six days. […] Thus, we tested whether inhibition of STAT3 signaling in primary mouse cortical astrocytes could reduce AQP4-M1 expression. […]

[7] = Intra-striate radio-tracer injection: interstitial solute clearance from the brain, wild type vs Aqp4-null
Experimental: To evaluate the pathways and rates of interstitial fluid and solute clearance from the brain, fluorescent and radio-labeled tracers were injected stereotactically into the brain parenchyma. Anesthetized animals were fixed in a stereotaxic frame and a 33GA needle was inserted via a small burr hole into the brain at the following coordinates: intra-cortical injections (0.22 mm caudal, 2.0 mm lateral, 1.75 mm ventral to bregma), intra-striate injections (0.22 mm caudal, 2.5 mm lateral, 3.5 mm ventral to bregma), intrathalamic injections (1.82 mm caudal, 1.25 mm lateral, 3.75 mm ventral to bregma). After needle insertion, 30 minutes was allowed to elapse to allow the needle track to swell closed. 1.0 μl of tracer (dissolved in artificial CSF) was injected at a rate of 17 nl/min.
15 min, 30 min, 1 h or 2h later, the animal was rapidly decapitated and the brain harvested. The brain was solubilized as above, and the radioactivity present in the brain was measured by liquid scintillation spectrometry. All radioactivity values were normalized to 1 μl injection standards taken immediately prior to each intra-parenchymal injection.

[8] = Intracisternal radio-tracer injection: accumulation in the brain parenchyma
Experimental: Anesthetized mice were fixed in a stereotaxic frame and a 30GA needle was inserted into the cisterna magna. For intracisternal injections, 10 μl of CSF tracer was injected at a rate of 2 μl/min over 5 minutes with a syringe pump (Harvard Apparatus).
After 15, 30 or 45 minutes, animals were rapidly decapitated, the skull opened, the dura removed and the brain harvested. The brain was solubilized in 2 ml Soluene (Sigma) at 45° C. overnight. 10 ml Hionic Fluor liquid scintillation cocktail (Perkin Elmer) was added and radioactivity was measured in a Multipurpose Scintillation Counter (Beckman Coulter). Brain radioactivity was normalized to total radioactivity detected in a 10 μl aliquot put directly into a scintillation vial immediately before intracisternal radio-tracer injection and expressed as the % of total injected radioactivity. ^3H-mannitol and ^3H-dextran accumulation in the brain was compared by 2-way ANOVA with Bonferroni's post-hoc test.

[9] = ratio of average mAUC of region to average mAUC of pituitary recess, mean ± SD
[10] = agent 1 μM, 30 minutes, frontal cortex

2-deoxy-2-(^18F)fluoro-D-glucose [^18FDG]
transport through the brain-wide glymphatic pathway [1]: moves rapidly through the brain-wide glymphatic pathway

CNC[C@H](O)[C@@H](O)[C@H](O)[C@H](O)CO.CNC[C@H](O)[C@@H](O)[C@H](O)[C@H](O)CO.O=C([O-])CN(CCN(CC(=O)[O-])CC(=O)O)CCN(CC(=O)[O-])CC(=O)O.[Gd+3] [Gd-DTPA, 1-deoxy-1(methylamino)D-glucitol dihydrogen [N,N-bis[2-[bis(carboxymethyl)amino]ethyl]glycinato (5-)]gadolinite(2-)(2:1)]
transport through the brain-wide glymphatic pathway [2]: with some ‘restriction’ | mAUC at the pituitary recess ([3]; not normalized, mean ± SD): 743±266 % signal change per time interval | time at which average uptake in the cerebellum peaked / reached apparent plateau ([3]; post-injection): ~90 min | time of peak of signal changes induced within the parenchyma ([3]; post-injection): 60 to 80 min | mAUC, Aqueduct [3, 9]: 0.34 ± 0.23 | mAUC, Cerebellum [3, 9]: 0.28 ± 0.11 | mAUC, Olfactory Bulb [3, 9]: 0.24 ± 0.11 | mAUC, Pontine Nucleus [3, 9]: 0.17 ± 0.09 | mAUC, Pineal recess ([3]; ratio of average mAUC of region to average mAUC of pituitary recess, mean ± SD, intrathecal infusion): 1.01 ± 0.35 | #Voxels - Zone 3, mean (SD) ([4]; most distally labeled voxels): 18295 (7407) | #Voxels - Zone 1, mean (SD) ([4]; para-vascular zone): 4048 (2146) | Zone 2#Voxels*AUC/Zone 1#Voxels*AUC, mean (SD) ([4]; rat, in vivo): 1.62 (0.60) | time-to-peak of the para-vascular red cluster ([4]; rat, in vivo): ~90 min | #Voxels - Zone 2, mean (SD) ([4]; tissue adjacent to zone 1): 15835 (5690)

CC(=N)NCCCC[C@H](N)C(=O)O [L-NIL]
clearance of Aβ (glymphatic system [5]; 1 mM): increased | clearance of inulin (glymphatic system [5]; 1 mM): increased | influx of Aβ with dose (glymphatic system [6]; mouse, in vivo): dose dependent increase | influx of inulin with dose (glymphatic system [6]; mouse, in vivo): dose dependent increase

O=[N+]([O-])c1ccc2c(c1)S(=O)(=O)C=C2 [STATTIC]
AQP4-M1 expression (AQP4-M1 expression): significantly reduced

OC[C@@H](O)[C@@H](O)[C@H](O)[C@H](O)CO [[^3H]mannitol]
reduction of clearance from the brain interstitium in Aqp4-null mice compared to wild type ([7]; intra-striate injection): ~70% | approximate maximal influx, plateau of one-phase association fit ([8]; % of total injected radioactivity, R2=0.3597): 39.96±5.55% | proportion of injected tracer detectable in the brain ([8]; within 45 min of intracisternal injection): ~40%

NC(=O)CC[C@@H]1NC(=O)[C@H](Cc2ccccc2)NC(=O)[C@H](Cc2ccc(O)cc2)NC(=O)[C@@H](N)CSSC[C@@H](C(=O)N2CCC[C@H]2C(=O)N[C@@H](CCCN=C(N)N)C(=O)NCC(N)=O)NC(=O)[C@H](CC(N)=O)NC1=O [vasopressin]
brain clearance of Aβ (glymphatic system [5]; [10]): reduced | brain clearance of inulin (glymphatic system [5]; [10]): reduced

^125I-amyloid β1-40: radio-labeled amyloid β1-40 peptide tracer
rate of clearance from the brain in wild-type mice, in words ([7]; mouse, in vivo): exceeded that of either [^3H]mannitol or [^3H]dextran-10 | reduction of clearance from the brain interstitium in Aqp4-null mice compared to wild type ([7]; mouse, in vivo): ~55% | accumulation in the brain after intracisternal injection, in words ([8]; mouse, in vivo): increased in a manner comparable to [^3H]dextran-10

angiotensin (1-7): active angiotensin metabolite acting on the Mas receptor; opposes angiotensin II (DRVYIHP; Angiotensin 1-7; UniProt P01019 25-31, looked up)
clearance of Aβ at 15 minutes (glymphatic system [5]; 1 nM and 10 nM, 15 minute time point): increased; also recorded: greater change between concentrations 10 nM and 1 nM | clearance of Aβ with dose (glymphatic system [5]; 1 μM, 0.1 μM and 0.01 μM, pre-injected into frontal cortex, 30 minutes): increased progressively with dose

angiotensin II: peptide of the renin-angiotensin system acting on AT1R and AT2R
brain clearance of Aβ (glymphatic system [5]; [10]): reduced | brain clearance of inulin (glymphatic system [5]; [10]): reduced | levels of Aβ40 remaining in brain (recovery) (glymphatic system [5]; [10]): increase | levels of inulin remaining in brain (recovery) (glymphatic system [5]; [10]): increase | influx of Aβ40 into brain (glymphatic system [6]; agent 1 μM injected into the cistern magna, 30 minutes): decrease | influx of inulin into brain (glymphatic system [6]; angiotensin II 1 μM, losartan route not given, 30 minutes): decrease

atrial natriuretic peptide (ANP): a peptide that reduces body water and sodium (SLRRSSCFGGRMDRIGAQSGLGCNSFRY; ends and bridges not checked; cysteine pairing not given here; UniProt P01160 124-151, looked up)
brain clearance of Aβ (glymphatic system [5]; [10]): reduced | brain clearance of inulin (glymphatic system [5]; [10]): reduced
